Experimental data published in US10278959B2, “Ready to use ketorolac formulations” (RTU Pharmaceuticals, LLC, priority 2010, dated 2019).

Key:
Type in all cases: physicochemical
[1] = Acid-catalyzed degradation, HPLC purity
Experimental: (§1) Degradation products for ketorolac tromethamine were generated under acidic and basic conditions for reference when evaluating HPLC chromatograms for purity. This ensures differentiation between degradants, impurities, and peaks which are both impurities and degradants. For the acid-catalyzed degradation, 4.92 mg of ketorolac tromethamine was added to a scintillation vial, followed by 10 mL of H2O, and the pH of the resulting colorless solution was adjusted to pH 1.60 with H3PO4. Aliquots of this solution were placed in capped amber HPLC vials in an 85° C. oven for the indicated amount of time, then analyzed by HPLC using the purity method outlined in Table 3. For the base catalyzed degradation, 4.92 mg of ketorolac tromethamine was added to a scintillation vial, followed by 10 mL of H2O, and the resulting colorless solution was adjusted to pH 12.09 with NaOH. Aliquots of this solution were placed in capped amber HPLC vials in an 85° C. oven for the indicated amount of time, then analyzed by HPLC using the purity method outlined in Table 3.

[2] = Base-catalyzed degradation, HPLC purity
Experimental: as §1

[3] = Light Stability Study (ambient light), HPLC purity
Experimental: The clear scintillation vial was capped and placed on the windowsill, exposing the solution to both ambient light and temperature conditions. Aliquots (500 μL) were removed at various time points and diluted with an equal volume of H2O in an amber HPLC vial. The diluted solution was then analyzed by HPLC for the purity of ketorolac tromethamine.

[4] = Stability Study B in Baxter IntraVia bags, HPLC purity; details: heat for extended periods of time
Experimental: Once all materials were added to the volumetric flask, it was filled to the line with H2O. The flask was magnetically stirred if any undissolved material was present. The formulations were then purged with N2 for 5 minutes before the bag filling process began. The Baxter IntraVia bags were filled by mass (80 g±1 g) using a peristaltic pump to feed the solution into each bag. A 2-way valve were placed in the solution filling line for sterile filtration and to regulate flow, respectively. For each formulation, 24 bags were filled.
All bags were used in the stability study without exposure to autoclave (or simulated autoclave) conditions. All bags were pulled within 1 day time points of 0, 4, 7, 14, 28 and 42 days and allowed to equilibrate to room temperature before sampling. Sampling of the bags for HPLC analysis occurred using a 5 cc disposable syringe with 21 gauge needle through the drug injection port. Approximately 1.5 mL of each formulation was transferred to an amber HPLC vial and analyzed within 12 hours of sampling.
This study included 3 formulations at 3 different temperatures (40° C., 60° C., and 80° C.) with time points over 6 weeks. Stability Study A provided information to structure Stability Study B with respect to the ideal parameters. […] Table 8 details the measured purity by HPLC of formulations 7, 8, and 10.

- HPLC Purity ([1]; pH 1.60, 85° C., 2.5 hours): 98.96%
- HPLC Purity ([1]; pH 1.60, 85° C., 4 hours): 98.92%
- HPLC Purity ([1]; pH 1.60, 85° C., 24 hours): 98.87%
- HPLC Purity ([1]; pH 1.60, 85° C., 40 hours): 98.08%
- HPLC Purity ([1]; pH 1.60 with H3PO4, 85° C., 1.5 hours): 99.02%
- HPLC Purity ([2]; pH 12.09, 85° C., 2.5 hours): 99.66%
- HPLC Purity ([2]; pH 12.09, 85° C., 4 hours): 99.62%
- HPLC Purity ([2]; pH 12.09, 85° C., 24 hours): 99.28%
- HPLC Purity ([2]; pH 12.09, 85° C., 40 hours): 98.97%
- HPLC Purity ([2]; pH 12.09 with NaOH, 85° C., 1.5 hours): 99.67%
- Purity ([3]; ambient light and temperature, clear vial, in H2O, 0 days): 99.62%
- Purity ([3]; ambient light, 1 day): 99.62%
- Purity ([3]; ambient light, 3 days): 99.60%
- Purity ([3]; ambient light, 5 days): 99.61%
- Purity ([3]; ambient light, 12 days): 99.60%
- Purity ([3]; ambient light, 41 days): 97.03%
- Purity ([3]; ambient light, 48 days): 96.24%
- Purity ([3]; ambient light, 62 days): 93.27%
- Purity ([3]; ambient light, 76 days): 90.50%
- stability upon exposure to heat [4]: stable
Compound: O=C(c1ccccc1)c1ccc2n1CCC2C(=O)O (centres unmarked) [Ketorolac tromethamine]
